PubChem BioAssay AID248 (DTP/NCI, 2004)
Several values for one entry are separate records, joined by “and”; a condition that tells them apart may be missing. Equal entries are not always repeated. Inconclusive results and toxic doses are left out. Rule as the data show it: active = T/C of 150% or more; inactive = T/C below 125%.

System: L1210 leukemia ip in BDF1 mice, survival T/C
Experiment: NCI In Vivo Anticancer Drug Screen. Data for tumor model L1210 Leukemia (intraperitoneal) in B6D2F1 (BDF1) mice
Conditions: endpoint: mean survival time, higher = longer survival
In short: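 Each compound was tested against a transplantable tumor grown in mice. The endpoint was survival, with treated animals benchmarked against vehicle controls as a simple ratio.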

[1] = dose: 100.0 mg/kg/injection, schedule: Q01DX009 (ip), vehicle: saline with Tween-80
[2] = dose: 100.0 mg/kg/injection, schedule: Q04DX003 (ip), vehicle: Klucel (hydroxypropylcellulose) (HPC)
[3] = dose: 200.0 mg/kg/injection, schedule: Q01DX009 (ip), vehicle: saline with Tween-80
[4] = dose: 200.0 mg/kg/injection, schedule: Q04DX003 (ip), vehicle: Klucel (hydroxypropylcellulose) (HPC)
[5] = dose: 400.0 mg/kg/injection, schedule: Q01DX009 (ip), vehicle: saline with Tween-80
[6] = dose: 400.0 mg/kg/injection, schedule: Q04DX003 (ip), vehicle: Klucel (hydroxypropylcellulose) (HPC)
[7] = dose: 100.0 mg/kg/injection, schedule: Q01DX001 (ip), vehicle: carboxymethylcellulose (CMC)
[8] = dose: 200.0 mg/kg/injection, schedule: Q01DX001 (ip), vehicle: carboxymethylcellulose (CMC)
[9] = dose: 400.0 mg/kg/injection, schedule: Q01DX001 (ip), vehicle: carboxymethylcellulose (CMC)
[10] = dose: 100.0 mg/kg/injection, schedule: Q04DX003 (ip), vehicle: saline with Tween-80
[11] = dose: 200.0 mg/kg/injection, schedule: Q04DX003 (ip), vehicle: saline with Tween-80
[12] = dose: 400.0 mg/kg/injection, schedule: Q04DX003 (ip), vehicle: saline with Tween-80

Measured: T/C

CCNc1nc(Cl)nc(NCC)n1
inactive: dose: 100.0 mg/kg/injection, schedule: Q01DX009 (ip), vehicle: saline sonified 98 % of control | [1] 95 % of control | [2] 94 % of control and 103 % of control | dose: 200.0 mg/kg/injection, schedule: Q01DX009 (ip), vehicle: saline sonified 98 % of control | [3] 94 % of control | [4] 94 % of control and 103 % of control | dose: 400.0 mg/kg/injection, schedule: Q01DX009 (ip), vehicle: saline sonified 96 % of control | [5] 100 % of control | [6] 102 % of control and 103 % of control

NC(N)=N/N=C\c1cccc(OCc2ccccc2)c1
inactive: dose: 15.0 mg/kg/injection, schedule: Q01DX Z (oral), vehicle: saline 94 % of control | dose: 30.0 mg/kg/injection, schedule: Q01DX Z (oral), vehicle: saline 89 % of control | dose: 60.0 mg/kg/injection, schedule: Q01DX Z (oral), vehicle: saline 93 % of control | dose: 120.0 mg/kg/injection, schedule: Q01DX Z (oral), vehicle: saline 94 % of control

C#CCOC(=O)Nc1ccc(C)cc1
inactive: [7] 108 % of control | [8] 100 % of control | [9] 118 % of control

O=C(O)CCn1ccc2ccccc21
inactive: [2] 97 % of control | [4] 97 % of control | [6] 97 % of control

CC(=O)OC1=C(c2c(C)cc(C)c(Br)c2C)C(=O)C(OC(C)=O)=C(c2c(C)cc(C)c(Br)c2C)C1=O
inactive: [2] 104 % of control | [4] 100 % of control | [6] 98 % of control

OCC(O)COc1ccc(Cl)cc1 (stereo unspecified)
inactive: dose: 100.0 mg/kg/injection, schedule: Q01DX001 (ip), vehicle: saline with Tween-80 98 % of control | [1] 100 % of control and 110 % of control | [10] 98 % of control and 100 % of control | dose: 200.0 mg/kg/injection, schedule: Q01DX001 (ip), vehicle: saline with Tween-80 105 % of control | [3] 96 % of control and 100 % of control | [11] 96 % of control and 103 % of control | dose: 400.0 mg/kg/injection, schedule: Q01DX001 (ip), vehicle: saline with Tween-80 88 % of control | [5] 94 % of control | [12] 100 % of control

CCC(CC)C(N)=O
inactive: dose: 100.0 mg/kg/injection, schedule: Q01DX001 (ip), vehicle: Klucel (hydroxypropylcellulose) (HPC) 100 % of control | dose: 200.0 mg/kg/injection, schedule: Q01DX001 (ip), vehicle: Klucel (hydroxypropylcellulose) (HPC) 102 % of control | dose: 400.0 mg/kg/injection, schedule: Q01DX001 (ip), vehicle: Klucel (hydroxypropylcellulose) (HPC) 107 % of control

CN=C(N)Nc1ccc(C(=O)Oc2ccc([N+](=O)[O-])cc2)cc1
inactive: dose: 25.0 mg/kg/injection, schedule: Q01DX009 (ip), vehicle: water 112 % of control | dose: 50.0 mg/kg/injection, schedule: Q01DX009 (ip), vehicle: water 102 % of control

Clc1ccnc(Cl)n1
inactive: dose: 100.0 mg/kg/injection, schedule: Q01DX009 (ip), vehicle: saline 97 % of control | dose: 100.0 mg/kg/injection, schedule: Q04DX003 (ip), vehicle: saline 96 % of control | dose: 200.0 mg/kg/injection, schedule: Q01DX009 (ip), vehicle: saline 101 % of control | dose: 200.0 mg/kg/injection, schedule: Q04DX003 (ip), vehicle: saline 96 % of control | dose: 400.0 mg/kg/injection, schedule: Q01DX009 (ip), vehicle: saline 97 % of control | dose: 400.0 mg/kg/injection, schedule: Q04DX003 (ip), vehicle: saline 97 % of control

N#CC1(N(O)C(=O)Nc2ccccc2)CCCCC1
inactive: dose: 100.0 mg/kg/injection, schedule: Q01DX001 (ip), vehicle: saline 93 % of control | dose: 200.0 mg/kg/injection, schedule: Q01DX001 (ip), vehicle: saline 96 % of control | dose: 400.0 mg/kg/injection, schedule: Q01DX001 (ip), vehicle: saline 91 % of control

Cc1cc2ncn(CC(=O)NN)c2cc1C
inactive: [1] 86 % of control | [10] 92 % of control | [11] 95 % of control | [12] 92 % of control

CCCCCCCCCCCCCCCC(=O)N(CCC)CCC
inactive: [7] 98 % of control | dose: 100.0 mg/kg/injection, schedule: Q01DX009 (ip), vehicle: carboxymethylcellulose (CMC) 105 % of control and 90 % of control | dose: 100.0 mg/kg/injection, schedule: Q04DX002 (ip), vehicle: carboxymethylcellulose (CMC) 102 % of control | dose: 100.0 mg/kg/injection, schedule: Q04DX003 (ip), vehicle: carboxymethylcellulose (CMC) 102 % of control | [8] 99 % of control | dose: 200.0 mg/kg/injection, schedule: Q01DX009 (ip), vehicle: carboxymethylcellulose (CMC) 100 % of control and 101 % of control | dose: 200.0 mg/kg/injection, schedule: Q04DX002 (ip), vehicle: carboxymethylcellulose (CMC) 94 % of control | dose: 200.0 mg/kg/injection, schedule: Q04DX003 (ip), vehicle: carboxymethylcellulose (CMC) 104 % of control | [9] 99 % of control | dose: 400.0 mg/kg/injection, schedule: Q04DX002 (ip), vehicle: carboxymethylcellulose (CMC) 96 % of control | dose: 400.0 mg/kg/injection, schedule: Q04DX003 (ip), vehicle: carboxymethylcellulose (CMC) 104 % of control

O=C1C(=O)c2cc(Br)cc([N+](=O)[O-])c2-c2ccc(Br)cc21
inactive: dose: 50.0 mg/kg/injection, schedule: Q01DX001 (ip), vehicle: carboxymethylcellulose (CMC) 95 % of control | [7] 106 % of control | [8] 101 % of control | [9] 97 % of control

O=C(O)c1ccnc(Cl)c1
inactive: [10] 101 % of control | [11] 102 % of control | [12] 101 % of control

CCN1/C(=C/C=C/c2oc3ccccc3[n+]2CC)Oc2ccccc21
inactive: dose: 0.05 mg/kg/injection, schedule: Q04DX003 (ip), vehicle: Klucel (hydroxypropylcellulose) (HPC) 102 % of control | dose: 0.1 mg/kg/injection, schedule: Q04DX003 (ip), vehicle: Klucel (hydroxypropylcellulose) (HPC) 100 % of control | dose: 0.2 mg/kg/injection, schedule: Q01DX009 (ip), vehicle: saline 104 % of control | dose: 0.2 mg/kg/injection, schedule: Q04DX003 (ip), vehicle: Klucel (hydroxypropylcellulose) (HPC) 98 % of control | dose: 0.2 mg/kg/injection, schedule: Q04DX003 (ip), vehicle: saline 112 % of control | dose: 0.4 mg/kg/injection, schedule: Q01DX009 (ip), vehicle: saline 109 % of control | dose: 0.4 mg/kg/injection, schedule: Q04DX003 (ip), vehicle: Klucel (hydroxypropylcellulose) (HPC) 104 % of control | dose: 0.4 mg/kg/injection, schedule: Q04DX003 (ip), vehicle: saline 94 % of control | dose: 0.5 mg/kg/injection, schedule: Q01DX001 (ip), vehicle: saline 108 % of control | dose: 0.8 mg/kg/injection, schedule: Q01DX009 (ip), vehicle: saline 114 % of control | dose: 0.8 mg/kg/injection, schedule: Q04DX003 (ip), vehicle: saline 100 % of control | dose: 1.0 mg/kg/injection, schedule: Q01DX001 (ip), vehicle: saline 100 % of control | dose: 1.6 mg/kg/injection, schedule: Q04DX003 (ip), vehicle: saline 107 % of control | dose: 37.5 micrograms/kg/injection, schedule: Q01DX009 (ip), vehicle: Klucel (hydroxypropylcellulose) (HPC) 108 % of control | dose: 75.0 micrograms/kg/injection, schedule: Q01DX009 (ip), vehicle: Klucel (hydroxypropylcellulose) (HPC) 98 % of control | dose: 150.0 micrograms/kg/injection, schedule: Q01DX009 (ip), vehicle: Klucel (hydroxypropylcellulose) (HPC) 107 % of control | dose: 300.0 micrograms/kg/injection, schedule: Q01DX009 (ip), vehicle: Klucel (hydroxypropylcellulose) (HPC) 113 % of control

CN(C)C(=O)C1C2C=CC(C2)C1C(=O)N(C)C (stereo unspecified)
inactive: [10] 98 % of control | [11] 95 % of control | [12] 98 % of control

CC(=O)C1=CC[C@H]2[C@@H]3CCC4=CC(=O)CC[C@]4(C)[C@H]3C(=O)C[C@]12C
inactive: dose: 50.0 mg/kg/injection, schedule: Q01DX Z (sc), vehicle: steriod suspending solution 102 % of control | dose: 250.0 mg/kg/injection, schedule: Q01DX Z (sc), vehicle: steriod suspending solution 101 % of control | dose: 500.0 mg/kg/injection, schedule: Q01DX Z (sc), vehicle: steriod suspending solution 102 % of control

Cc1ccc(NC(=O)Nc2cccc(O)c2)c([N+](=O)[O-])c1
inactive: dose: 50.0 mg/kg/injection, schedule: Q01DX009 (ip), vehicle: Klucel (hydroxypropylcellulose) (HPC) 98 % of control | dose: 100.0 mg/kg/injection, schedule: Q01DX009 (ip), vehicle: Klucel (hydroxypropylcellulose) (HPC) 102 % of control | [2] 103 % of control | dose: 200.0 mg/kg/injection, schedule: Q01DX009 (ip), vehicle: Klucel (hydroxypropylcellulose) (HPC) 98 % of control | [4] 106 % of control | [6] 103 % of control
